Results: patent US6432937B1, “Treatment for joint inflammation” (priority 1996, dated 2002)

Experiments:
Assay type in all cases: in vivo, human
[1] = system: HLA-B27 associated sacroiliitis with peripheral arthropathies; test: Example 5: patient with HLA-B27 associated sacroiliitis with peripheral arthropathies treated with oral budesonide; details: for Outcome of previous treatment: sacroiliitis with peripheral arthropathies for 8 years, treatment before budesonide
Description: (§1) The invention is illustrated by the following examples where budesonide is administered orally using the Entocort™ preparation as described in EP-A-502092.
A patient had suffered from a HLA-B27 associated sacroiliitis with peripheral arthropathies for 8 years. […] At admittance to the hospital they suffered from direct pains of the sacroiliac joints and inflammation of the left knee and left ankle.

[2] = system: ankylosing spondylitis; test: Example 2: patient with ankylosing spondylitis treated with oral budesonide; details: person; for Outcome of previous treatment: ankylosing spondylitis for 12 years, treatment before budesonide
Description: as §1
The tests were carried out in the same way as in Example 1 except that the laboratory inflammatory activity was measured using the ESR (erythrocyte sedimentation rate) whose normal value is less than 5 mm/h and the C-reactive protein plasma concentration which is usually less than 10 mg/litre.

[3] = system: HLA-B27 associated reactive arthritis; test: Example 4: patient with HLA-B27 associated reactive arthritis treated with oral budesonide; details: person
Description: as §1
wherein the Ritchie index is an alternative joint arthritic index.

[4] = system: sacroiliitis and peripheral oligoarthritis; test: Example 1: patient with sacroiliitis and peripheral oligoarthritis treated with oral budesonide; details: person; for Outcome of previous treatment: sacroiliitis and peripheral oligoarthritis for over 7 years, treatment before budesonide
Description: as §1
They were initially treated with 9 mg of budesonide once a day for the first four weeks and then the dose was reduced to 6 mg per day.
The normal value of morning stiffness is 0 min. The joint arthritic index was measured using the Lansbury index whose normal value is 0. The spinal movement was measured using Shober's Test whose normal value is from 5 to 6 cm. The joint pain at rest and in motion was estimated using a VAS (visual analogue scale) where 0 represents no pain and 10 very severe pain.

[5] = system: rheumatoid arthritis; test: Example 3: patient with rheumatoid arthritis treated with oral budesonide; details: person, 9 mg once a day, after 4 months
Description: The invention is illustrated by the following examples where budesonide is administered orally using the Entocort™ preparation as described in EP-A-502092. […] They were diagnosed as having rheumatoid arthritis. They were treated with 9 mg of budesonide once a day. The tests for the symptoms were carried out in the same way as in Examples 1 and 2.

[6] = system: rheumatoid arthritis; test: Example 8: patient with rheumatoid arthritis treated with oral budesonide; details: 9 mg once a day
Description: as §1
A person had for 2 months suffered from rapidly progressive inflammations of the finger joints of both hands (metacarpophalangeal joints, proximal interphalangeal joints) and the wrists. The diagnosis was rheumatoid arthritis.

[7] = system: rheumatoid arthritis; test: Example 7: patient with rheumatoid arthritis treated with oral budesonide; details: person, 9 mg per day, three weeks
Description: The invention is illustrated by the following examples where budesonide is administered orally using the Entocort™ preparation as described in EP-A-502092. A person had suffered from joint swelling and joint pains for about 5 months. At admittance they had symmetric swelling of finger joints, both knees and left ankle. They were on treatment with diclofenac. The rheumatoid factor test was positive and the diagnosis was rheumatoid arthritis. Diclofenac treatment was stopped and they were given 9 mg of budesonide per day.

[8] = system: rheumatoid arthritis; test: Example 6: patient with rheumatoid arthritis treated with oral budesonide; details: person, 9 mg per day, follow-up 4 weeks
Description: as §1

[9] = 9 mg once a day, oral, one month after start, before treatment 8
[10] = person, oral, second follow-up three weeks after the first, before treatment 7

O=C(O)c1cc(/N=N/c2ccc(S(=O)(=O)Nc3ccccn3)cc2)ccc1O [sulphasalazine]
Outcome of previous treatment ([1]; person): without any apparent disease-modifying effect
Outcome of previous treatment [2]: without success

C[C@]12C=CC(=O)C=C1CC[C@@H]1[C@@H]2[C@@H](O)C[C@@]2(C)[C@H]1CC[C@]2(O)C(=O)CO [prednisolone]
Outcome of previous treatment ([1]; person): without any apparent disease-modifying effect
Outcome of previous treatment ([3]; reactive arthritis, treatment before budesonide): some relief of the joint pains
Outcome of previous treatment [4]: without success

CCCC1O[C@@H]2C[C@H]3[C@@H]4CCC5=CC(=O)C=C[C@]5(C)[C@H]4[C@@H](O)C[C@]3(C)[C@]2(C(=O)CO)O1 (stereo partly shown) [budesonide]
Duration of treatment until they started to improve ([1]; 9 mg per day): 2 weeks
Ritchie index ([1]; person, 9 mg per day, oral, 6 weeks after start, before treatment 3): 0
Joint pains in motion (VAS 0-10) ([1]; person, 9 mg per day, oral, 6 weeks after start, before treatment 8): 0/0
Joint pains at rest (VAS 0-10) ([1]; person, 9 mg per day, oral, 6 weeks after start, before treatment 9.5): 0/0
Joint arthritic index ([1]; person, 9 mg per day, oral, 6 weeks after start, before treatment 127): 0
Morning stiffness ([1]; person, 9 mg per day, oral, 6 weeks after start, before treatment 180): 0 min
Spinal movement (Shober's Test) ([2]; 9 mg once a day, oral, one month after start, before treatment 2.5): 3.5 cm
Joint pains at rest (VAS 0-10) [2, 9]: 1
Joint pains in motion (VAS 0-10) [2, 9]: 1.7
ESR rate (erythrocyte sedimentation rate) ([2]; 9 mg once a day, oral, one month after start, before treatment 85, normal less than 5): 30 mm/h
Joint arthritic index (Lansbury index) ([2]; 9 mg once a day, oral, one month after start, before treatment 127): 80
C-reactive protein plasma concentration ([2]; 9 mg once a day, oral, one month after start, before treatment 140, usually less than 10): 25 mg/L
Morning stiffness ([2]; 9 mg once a day, oral, one month after start, before treatment 270): 0 min
C-reactive protein ([5]; before treatment 41): 10 mg/L
ESR rate ([5]; before treatment 70): 16 mm/h
Morning stiffness ([5]; before treatment 180): 0 min
Joint arthritic index (Lansbury index) ([5]; before treatment 205): 0
Ritchie index ([3]; 9 mg once a day, oral, three weeks, before treatment 9): 4
Joint arthritic index ([3]; 9 mg once a day, oral, three weeks, before treatment 112): 6
Morning stiffness ([3]; 9 mg once a day, oral, three weeks, before treatment 120): 60 min
Time until they started to feel better [6]: 14 days
Ritchie index ([6]; person, oral, first follow-up three weeks after start, before treatment 16): 2
Joint arthritic index ([6]; person, oral, first follow-up three weeks after start, before treatment 90): 0
Joint pains at rest (VAS 0-10) [6, 10]: 1/1
Joint pains in motion (VAS 0-10) [6, 10]: 1/1
Joint pains in motion (VAS 0-10) ([7]; before treatment 5): 0/0
Joint pains at rest (VAS 0-10) ([7]; before treatment 10): 0/0
Ritchie index ([7]; before treatment 19): 5
Joint arthritic index ([7]; before treatment 112): 15
Morning stiffness ([7]; before treatment 210): 15 min
Ritchie index ([8]; before treatment 8): 5
Joint arthritic index ([8]; before treatment 64): 0
Morning stiffness ([8]; before treatment 120): 60 min
Spinal movement (Shober's Test) ([4]; 9 mg once a day four weeks then 6 mg per day, oral, after 2 months, before treatment 1, normal 5 to 6): 4 cm
Joint pains at rest (VAS 0-10) ([4]; 9 mg once a day four weeks then 6 mg per day, oral, after 2 months, before treatment 5): 1.5/1.5
Joint pains in motion (VAS 0-10) ([4]; 9 mg once a day four weeks then 6 mg per day, oral, after 2 months, before treatment 9.5): 1.5/1.5
Morning stiffness ([4]; 9 mg once a day four weeks then 6 mg per day, oral, after 2 months, before treatment 120, normal 0): 20 min
Joint arthritic index (Lansbury index) ([4]; 9 mg once a day four weeks then 6 mg per day, oral, after 2 months, before treatment 127, normal 0): 0

CN(Cc1cnc2nc(N)nc(N)c2n1)c1ccc(C(=O)N[C@@H](CCC(=O)O)C(=O)O)cc1 [methotrexate]
Outcome of previous treatment ([1]; person): without any apparent disease-modifying effect
Outcome of previous treatment [2]: without success
Outcome of previous treatment [4]: without success
